Results published in patent US11325913B2, “Compounds and methods for the treatment of malaria” (THE BROAD INSTITUTE, INC., priority 2013, dated 2022).

What follows are compounds tested on P. falciparum Dd2 (assay: Activity against the Dd2 strain of P. falciparum (SYBR Green I, 72 h)). Conditions: P. falciparum Dd2, 72 h incubation.
Assay type: cell-based
Method: The Dd2 strain of P. falciparum was cultured in complete medium (RPMI with L-glutamine, 4.3% heat-inactivated O-positive human serum, 2.08 mg/ml albumax, 0.013 mg/ml hypoxanthine, 1.17 mg/ml glucose, 0.18% NaHCO3, 0.031 M Hepes, 2.60 mM NaOH, and 0.043 mg/ml gentamicin) until the parasitemia reached 3-8%. Parasitemia was determined by checking at least 500 red blood cells from a Giemsa-stained blood smear. The Dd2 cultures along with tested O-positive red blood cells were centrifuged at room temperature at 2,000 rpm for 5 minutes using an Eppendorf centrifuge 5810R with an A-4-81 rotor. The medium was aspirated off. For the compound screening, a parasite dilution at a 1% parasitemia and 1.0% hematocrit was created with screening medium (RPMI with L-glutamine, 4.16 mg/ml albumax II, 0.013 mg/ml hypoxanthine, 1.73 mg/ml glucose, 0.18% NaHCO3, 0.031 M Hepes, 2.60 mM NaOH, and 0.043 mg/ml gentamicin). The suspension was gassed with 93% nitrogen, 4% carbon dioxide, and 3% oxygen and placed at 37° C. until needed. Using a liquid dispenser, 20 μl of screening medium was dispensed into 384-well, black, clear-bottom plates. With a PinTool, 100 nl of compounds dissolved in DMSO was transferred into the assay plates along with control compound (mefloquine). Next, 30 μl of the parasite suspension in screening medium was then dispensed into the assay plates such that the final parasitemia was 1% and the final hematocrit was 1.0%. Final concentration of DMSO was 0.125%. Mefloquine at a final concentration of 20 μM and DMSO at a final concentration of 0.125% were used within the assay plates to serve as background and baseline controls, respectively. The assay plates were transferred to incubators (93% nitrogen, 4% carbon dioxide, and 3% oxygen during the 72 h incubation at 37° C.). Ten microliters of detection reagent consisting of 10×SYBR Green I (Invitrogen; supplied in 10,000× concentration) in lysis buffer (20 mM Tris-HCl, 5 mM EDTA, 0.16% Saponin wt/vol, 1.6% Triton X vol/vol) was dispensed into the assay plates. For optimal staining, the assay plates were left at room temperature for 24 h in the dark. The assay plates were read by using an Envision (PerkinElmer) reader, with 505 dichroic mirrors with 485-nm excitation and 530-nm emission settings, and the plate reads were from the bottom.
By following the above-described protocol, the 50% effective concentration (EC50) for compounds 1-95 was measured against P. falciparum Dd2 and the results are shown in Table 2: […]

| SMILES | EC50 [nM] |
| --- | --- |
| O=C(Nc1ccc(F)cc1)N1CCCCN2[C@H](CO)[C@H](c3ccc(C#Cc4ccccc4)cc3)[C@@H]2C1 [Compound 11, (8R,9R,10S)-N-(4-fluorophenyl)-10-(hydroxymethyl)-9-(4-(phenylethynyl)phenyl)-1,6-diazabicyclo[6.2.0] decane-6-carboxamide] | 17 |

Same assay, conditions: Plasmodium falciparum, DD2, 72 h, P. falciparum Dd2, 72 h incubation

| SMILES | EC50 [nM] |
| --- | --- |
| COc1ccccc1C#Cc1ccc([C@@H]2[C@@H](CO)N3CCCCN(CCC(F)(F)F)C[C@H]23)cc1 [Compound 15, ((8S,9S,10S)-9-(4-((2-methoxyphenyl)ethynyl)phenyl)-6-(3,3,3-trifluoropropyl)-1,6-diazabicyclo[6.2.0]decan-10-yl)methanol] | 254 |
| COc1ccc(C#Cc2ccc([C@@H]3[C@@H](CO)N4CCCCN(C(=O)Nc5ccccc5F)C[C@H]34)cc2)cc1 [Compound 18, (8S,9S,10S)-N-(2-fluorophenyl)-10-(hydroxymethyl)-9-(4-((4-methoxyphenyl)ethynyl)phenyl)-1,6-diazabicyclo[6.2.0] decane-6-carboxamide] | 800 |
| COc1ccc(NC(=O)N2CCCCN3[C@H](CN4CCOCC4)[C@H](c4ccc(C#Cc5ccccc5)cc4)[C@@H]3C2)cc1 [Compound 55, (8R,9S,10S)-N-(4-methoxyphenyl)-10-(morpholin-4-ylmethyl)-9-[4-(2-phenylethynyl)phenyl]-1,6-diazabicyclo[6.2.0] decane-6-carboxamide] | 5 |
| COc1ccc(NC(=O)N2CCCCN3[C@H](CNC(C)=O)[C@H](c4ccc(C#Cc5ccccn5)cc4)[C@@H]3C2)cc1 [Compound 65, (8R,9S,10S)-10-(acetamidomethyl)-N-(4-methoxyphenyl)-9-{4-[2-(pyridin-2-yl)ethynyl]phenyl}-1,6-diazabicyclo[6.2.0] decane-6-carboxamide] | 110 |
| COc1cccc(NC(=O)N2CCCCN3[C@H](CO)[C@H](c4ccc(C#Cc5ccccc5)cc4)[C@@H]3C2)c1 [Compound 56] | 80 |
| Cc1ccc(-c2ccc([C@@H]3[C@H](CO)N4CCCCN(S(=O)(=O)c5cccc(C)c5)C[C@@H]34)cc2)cc1 [Compound 26, ((8R,9S,10R)-9-(4′-methyl-[1,1′-biphenyl]-4-yl)-6-(m-tolylsulfonyl)-1,6-diazabicyclo[6.2.0]decan-10-yl)methanol] | 955 |
| O=C(Nc1ccccc1)N1CCCCN2[C@@H](CO)[C@H](c3ccc(C#Cc4cccnc4)cc3)[C@@H]2C1 [Compound 6, (8R,9R,10R)-10-(hydroxymethyl)-N-phenyl-9-(4-(pyridin-3-ylethynyl)phenyl)-1,6-diazabicyclo[6.2.0] decane-6-carboxamide] | 552 |
| COc1ccc(NC(=O)N2CCCCN3[C@@H](COCCC(=O)O)[C@H](c4ccc(C#Cc5ccccc5)cc4)[C@@H]3C2)cc1 [Compound 86, 3-(((8R,9R,10R)-6-((4-methoxyphenyl)carbamoyl)-9-(4-(phenylethynyl)phenyl)-1,6-diazabicyclo[6.2.0]decan-10-yl)methoxy)propanoic acid] | 2 |
| COc1cccc(CN2CCCCN3[C@H](CO)[C@@H](c4ccc(C#Cc5cccnc5)cc4)[C@H]3C2)c1 [Compound 17, ((8S,9S,10S)-6-(3-methoxybenzyl)-9-(4-(pyridin-3-ylethynyl)phenyl)-1,6-diazabicyclo[6.2.0]decan-10-yl)methanol] | 560 |
| COc1ccc(NC(=O)N2CCCCN3[C@H](CO)[C@H](c4ccc(C#Cc5ccccc5)cn4)[C@@H]3C2)cc1 [Compound 81, (8R,9R,10S)-10-(hydroxymethyl)-N-(4-methoxyphenyl)-9-(5-(phenylethynyl)pyridin-2-yl)-1,6-diazabicyclo[6.2.0] decane-6-carboxamide] | 34 |
| O=C(Nc1ccccc1)N1CCCCN2[C@H](CO)[C@H](c3ccc(C#Cc4ccccc4)cc3)[C@@H]2C1 [Compound 30, (8R,9R,10S)-10-(hydroxymethyl)-N-phenyl-9-(4-(phenylethynyl)phenyl)-1,6-diazabicyclo[6.2.0] decane-6-carboxamide] | 42 |
| COc1ccc(NC(=O)N2CCCCN3[C@H](COCC(=O)O)[C@H](c4ccc(C#Cc5ccccc5)cc4)[C@@H]3C2)cc1 [Compound 35, 2-{[(8R,9R,10S)-6-[(4-methoxyphenyl)carbamoyl]-9-[4-(2-phenylethynyl)phenyl]-1,6-diazabicyclo[6.2.0]decan-10-yl]methoxy}acetic acid] | 65 |
| COc1ccc(NC(=O)N2CCCCN3[C@H](CO)[C@H](c4ccc(-c5cccnc5)cc4)[C@@H]3C2)cc1 [Compound 64, (8R,9R,10S)-10-(hydroxymethyl)-N-(4-methoxyphenyl)-9-[4-(pyridin-3-yl)phenyl]-1,6-diazabicyclo[6.2.0] decane-6-carboxamide] | 1010 |
| COc1ccc(NC(=O)N2CCCCN3[C@H](CO)[C@H](c4ccc(C#Cc5ccccn5)cc4)[C@@H]3C2)cc1 [Compound 4, (8R,9R,10S)-10-(hydroxymethyl)-N-(4-methoxyphenyl)-9-(4-(pyridin-2-ylethynyl)phenyl)-1,6-diazabicyclo[6.2.0] decane-6-carboxamide] | 131 |
| COc1ccc(NC(=O)N2CCN3[C@H](CO)[C@H](c4ccc(C#Cc5ccccc5)cc4)[C@@H]3C2)cc1 [Compound 34, (6R,7R,8S)-8-(hydroxymethyl)-N-(4-methoxyphenyl)-7-[4-(2-phenylethynyl)phenyl]-1,4-diazabicyclo[4.2.0] octane-4-carboxamide] | 4660 |
| OC[C@H]1[C@@H](c2ccc(-c3ccc(F)cc3)cc2)[C@@H]2CN(CCC(F)(F)F)CCCCN12 [Compound 9, ((8R,9S,10R)-9-(4′-fluoro-[1,1′-biphenyl]-4-yl)-6-(3,3,3-trifluoropropyl)-1,6-diazabicyclo[6.2.0]decan-10-yl)methanol] | 518 |
| O=S(=O)(c1ccc(F)cc1)N1CCCCN2[C@@H](CO)[C@@H](c3ccc(C4=CCCCC4)cc3)[C@@H]2C1 [Compound 5, ((8R,9S,10R)-6-((4-fluorophenyl)sulfonyl)-9-(2′,3′,4′,5′-tetrahydro-[1,1′-biphenyl]-4-yl)-1,6-diazabicyclo[6.2.0]decan-10-yl)methanol] | 1070 |
| COc1ccc(NC(=O)N2CCCCN3[C@H](CNC(C)=O)[C@H](c4ccc(C#Cc5ccccc5)cc4)[C@@H]3C2)cc1 [Compound 58, (8R,9S,10S)-10-(acetamidomethyl)-N-(4-methoxyphenyl)-9-[4-(2-phenylethynyl)phenyl]-1,6-diazabicyclo[6.2.0] decane-6-carboxamide] | 6 |
| COc1ccc(NC(=O)N2CCCCN3[C@H](CO)[C@H](c4ccc(-c5ccn(-c6ccccc6)c5)cc4)[C@@H]3C2)cc1 [Compound 66, (8R,9R,10S)-10-(hydroxymethyl)-N-(4-methoxyphenyl)-9-[4-(1-phenyl-1H-pyrrol-3-yl)phenyl]-1,6-diazabicyclo[6.2.0] decane-6-carboxamide] | 1310 |
| COc1ccc(NC(=O)N2CCCCN3[C@H](CN4CCC(C)(O)CC4)[C@H](c4ccc(C#Cc5ccccc5)cc4)[C@@H]3C2)cc1 [Compound 33, (8R,9S,10S)-10-[(4-hydroxy-4-methylpiperidin-1-yl)methyl]-N-(4-methoxyphenyl)-9-[4-(2-phenylethynyl)phenyl]-1,6-diazabicyclo[6.2.0] decane-6-carboxamide] | 2320 |
| COc1ccc(C#Cc2ccc([C@@H]3[C@@H](CO)N4CCCCN(C(=O)Nc5cccc(F)c5)C[C@H]34)cc2)cc1 [Compound 8, (8S,9S,10S)-N-(3-fluorophenyl)-10-(hydroxymethyl)-9-(4-((4-methoxyphenyl)ethynyl)phenyl)-1,6-diazabicyclo[6.2.0] decane-6-carboxamide] | 83 |
| O=C(Nc1ccccc1F)N1CCCCN2[C@H](CO)[C@H](c3ccc(C#Cc4cccnc4)cc3)[C@@H]2C1 [Compound 22, (8R,9R,10S)-N-(2-fluorophenyl)-10-(hydroxymethyl)-9-(4-(pyridin-3-ylethynyl)phenyl)-1,6-diazabicyclo[6.2.0] decane-6-carboxamide] | 507 |
| COc1ccc(C(=O)N2CCCCN3[C@H](CO)[C@H](c4ccc(C#Cc5ccccc5)cc4)[C@@H]3C2)cc1 [Compound 36, [(8R,9R,10S)-6-(4-methoxybenzoyl)-9-[4-(2-phenylethynyl)phenyl]-1,6-diazabicyclo[6.2.0]decan-10-yl]methanol] | 7900 |
| COc1ccc(NC(=O)N2CCCCN3[C@H](CO)[C@H](c4ccc(-c5ccccc5F)cc4)[C@@H]3C2)cc1 [Compound 46, (8R,9R,10S)-9-[4-(2-fluorophenyl)phenyl]-10-(hydroxymethyl)-N-(4-methoxyphenyl)-1,6-diazabicyclo[6.2.0] decane-6-carboxamide] | 17800 |
